The values below come from US7504406B2, “Derivatives of pyrido[2,3-d]pyrimidine, the preparation thereof, and the therapeutic application of the same” (Sanofi-Aventis, priority 2005, dated 2009).

What all share (assay type): cell-based
The test system of one assay is K-562 line. Description: MTS cell proliferation and viability test, K-562 line. Conditions: Homo sapiens, K562, K-562 leukaemia line, 72 hours of incubation, read-out: IC50 (50% loss of cell proliferation and cell viability). As to the method: The compounds of formula (I) according to the present invention were tested in vitro on a panel of tumour lines of human origin, originating: • from breast cancer: MDA-MB231 (American Type culture collection, Rockville, Md., USA, ATCC-HTB26), MDA-A1 or MDA-ADR (called multi-drug resistant MDR line, and described by E. Collomb et al., in Cytometry, 12(1):15-25, 1991), and MCF7 (ATCC-HTB22), • from prostate cancer: DU145 (ATCC-HTB81) and PC3 (ATCC-CRL1435), • from colon cancer: HCT116 (ATCC-CCL247) and HCT15 (ATCC-CCL225), • from lung cancer: H460 (described by Carmichael in Cancer Research 47 (4):936-942, 1987 and provided by the National Cancer Institute, Frederick Cancer Research and Development Center, Frederick, Md., USA), • from glioblastoma: SF268 (described by Westphal in Biochemical & Biophysical Research Communications 132 (1): 284-289, 1985 and provided by the National Cancer Institute, Frederick Cancer Research and Development Center, Frederick, Md., USA), • from leukaemia: CMLT1 (described by Kuriyama et al. in Blood, 74: 1989, 1381-1387, by Soda et al. in British Journal of Haematology, 59: 1985, 671-679 and by Drexler, in Leukemia Research, 18: 1994, 919-927 and provided by the company DSMZ (Deutsche Sammlung von Mikroorganismen und Zellkulturen GmbH) Mascheroder Weg 1b, 38124 Braunschweig, Germany), K-562 (described by Lozzio et al., J Natl Cancer Inst 50: 535 (1973), by Lozzio et al., Blood 45: 321 (1975), and provided by DSMZ No. ACC 10), KG-1a (described by Koeffler et al., Blood 56: 265 (1980), and provided by DSMZ No. ACC 421), and Kasumi-1 (described by Asou et al., Blood 77: 2031 (1991), and provided by DSMZ No. ACC 220).
The cell proliferation and viability were determined in a test using 3-(4,5-dimethylthiazol-2-yl)-5-(3-carboxymethoxyphenyl)-2-(4-sulphophenyl)-2H-tetrazolium (MTS) according to Fujishita T. et al., Oncology, 2003, 64 (4), 399-406. In this test, the mitochondrial ability of the live cells to convert MTS to a coloured compound is measured after 72 hours of incubation of a compound of formula (I) according to the invention. The concentrations of compound according to the invention which result in a 50% loss of cell proliferation and cell viability (IC50) are between 1 nM and 10 μM, depending on the tumor line and the compound tested. For example, compound No. 1 has an IC50 of 40 nM on the K-562 line, an IC50 of 50 nM on the KG-1a line and an IC50 of 40 nM on the Kasumi-1 line.

A further assay has as its system Kasumi-1 line. Description: MTS cell proliferation and viability test, Kasumi-1 line. The settings on record: Homo sapiens, Kasumi-1 leukaemia line, 72 hours of incubation, read-out: IC50 (50% loss of cell proliferation and cell viability). As to the method: […]
(§1) The cell proliferation and viability were determined in a test using 3-(4,5-dimethylthiazol-2-yl)-5-(3-carboxymethoxyphenyl)-2-(4-sulphophenyl)-2H-tetrazolium (MTS) according to Fujishita T. et al., Oncology, 2003, 64 (4), 399-406. In this test, the mitochondrial ability of the live cells to convert MTS to a coloured compound is measured after 72 hours of incubation of a compound of formula (I) according to the invention. […]

For another assay, the system named is KG-1a line. Description: MTS cell proliferation and viability test, KG-1a line. Conditions: Homo sapiens, KG-1a leukaemia line, 72 hours of incubation, read-out: IC50 (50% loss of cell proliferation and cell viability). The method, then: […]
as §1

The next assay has as its system SF268. Description: MTS cell proliferation and viability test, SF268 line. The settings on record: Homo sapiens, SF-268, SF268 glioblastoma line, 72 hours of incubation, read-out: IC50 (50% loss of cell proliferation and cell viability). As to the method: […]
as §1

Regarding `CCN(CC)Cc1cc2cc(Nc3ncc4cc(-c5c(Cl)cccc5Cl)c(NC(=O)NC(C)(C)C)nc4n3)ccc2o1` [Compound No. 5, N-[6-(2,6-dichlorophenyl)-2-[[2-[(diethylamino)methyl]-5-benzofuranyl]amino]pyrido[2,3-d]pyrimidin-7-yl]-N′-(1,1-dimethylethyl)urea], the IC50 with K-562 line stood at 5 nM.
The same measure, in the same setting: with `CC(C)(C)NC(=O)Nc1nc2nc(Nc3ccc4ncnn4c3)ncc2cc1-c1c(Cl)cccc1Cl` [Compound No. 9, N-[6-(2,6-dichlorophenyl)-2-([1,2,4]triazolo[1,5-a]pyridin-6-ylamino)pyrido[2,3-d]pyrimidin-7-yl]-N′-(1,1-dimethylethyl)urea] the figure was 19 nM.
Still for that read-out and setting: for `CCNC(=O)Nc1nc2nc(Nc3ccc4nsnc4c3)ncc2cc1-c1c(Cl)cccc1Cl` [Compound No. 13, N-[2-(2,1,3-benzothiadiazol-5-ylamino)-6-(2,6-dichlorophenyl)pyrido[2,3-d]pyrimidin-7-yl]-N′-ethylurea] the value was 74 nM.
In the case of `CC(C)(C)NC(=O)Nc1nc2nc(Nc3ccc4nsnc4c3)ncc2cc1-c1c(Cl)cccc1Cl` [Compound No. 1, N-[2-(2,1,3-benzothiadiazol-5-ylamino)-6-(2,6-dichlorophenyl)pyrido[2,3-d]pyrimidin-7-yl]-N′-(1,1-dimethylethyl)urea], the results for the IC50 in the assay on Kasumi-1 line, in the assay on K-562 line and with KG-1a line were 40 nM, 40 nM and 50 nM, respectively.
As for `CC(C)(C)NC(=O)Nc1nc2nc(Nc3ccc4oc(CN)nc4c3)ncc2cc1-c1c(Cl)cccc1Cl` [Compound No. 7, N-[2-[[2-(aminomethyl)-5-benzoxazolyl]amino]-6-(2,6-dichlorophenyl)pyrido[2,3-d]pyrimidin-7-yl]-N′-(1,1-dimethylethyl)urea], the IC50 in the assay on SF268 was 43 nM.
